Here are results for 16 molecules from US9422296B2, “Fast-dissociating dopamine 2 receptor antagonists” (Janssen Pharmaceutica NV, priority 2007, dated 2016).

The target of series [1] is T1, human Dopamine D3 receptor (Homo sapiens, UniProt P35462).
T1 construct: expressed in transfected cells; host or cells: CHO cells (membranes)
Briefly: In vitro binding affinity for human D3 receptor ([125I]iodosulpride). Conditions: for IC50: [125I]iodosulpride, membranes of human D3 receptor-transfected CHO cells, read-out: D3 binding pIC50 (converted). The protocol: In Vitro Binding Affinity for Human D3 Receptor
Frozen membranes of human Dopamine D3 receptor-transfected CHO cells were thawed, briefly homogenized using an Ultra-Turrax T25 homogeniser and diluted in 50 mM Tris-HCl assay buffer containing 120 mM NaCl, 2 mM CaCl2, 1 mM MgCl2, 5 mM KCl and 0.1% BSA (adjusted to pH 7.4 with HCl) to an appropriate protein concentration optimized for specific and non-specific binding. Radioligand [^125I]Iodosulpride (Amersham, specific activity ˜2000 Ci/mmol) was diluted in assay buffer at a concentration of 2 nM. Prepared radioligand (20 μl), along with 40 μl of either the 10% DMSO control, Risperidone (10^−6M final concentration), or compound of interest, was then incubated with 70 μl of the prepared membrane solution and 70 μl of WGA coated PVT beads (0.25 mg/well final concentration). After shaking for 24 hours at RT plates were counted in a Topcount™ scintillation counter. Percentage specific binding and competition binding curves were calculated using S-Plus software (Insightful).

In series [2] the target is T2, human Serotonin 5HT6 receptor (Homo sapiens, UniProt P50406).
T2 construct: expressed in transfected cells; host or cells: HEK cells (membranes)
T2 sequence (P50406 whole entry): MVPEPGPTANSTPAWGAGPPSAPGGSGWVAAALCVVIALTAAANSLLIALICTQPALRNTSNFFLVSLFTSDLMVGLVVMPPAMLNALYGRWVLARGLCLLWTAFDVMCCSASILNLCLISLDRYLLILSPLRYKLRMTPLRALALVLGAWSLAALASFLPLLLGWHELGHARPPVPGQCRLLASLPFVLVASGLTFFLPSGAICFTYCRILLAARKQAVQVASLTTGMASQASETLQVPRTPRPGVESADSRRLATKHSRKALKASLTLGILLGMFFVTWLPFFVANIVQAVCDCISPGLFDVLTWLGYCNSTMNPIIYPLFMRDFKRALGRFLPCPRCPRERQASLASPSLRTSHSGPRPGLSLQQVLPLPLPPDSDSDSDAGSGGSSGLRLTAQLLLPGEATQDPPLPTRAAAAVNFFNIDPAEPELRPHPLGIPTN
Briefly: In vitro binding affinity for human 5HT6 receptor ([3H]lysergic acid diethylamide). Conditions: [3H]LSD, membranes of human 5HT6 receptor-transfected HEK cells; for IC50: read-out: 5-HT6 binding pIC50 (converted). The protocol:
In Vitro Binding Affinity for Human 5HT6 Receptor
Frozen membranes of human Serotonin 5HT6 receptor-transfected HEK cells were thawed, briefly homogenized using an Ultra-Turrax T25 homogeniser and diluted in 50 mM Tris-HCl assay buffer containing 10 mM MgCl2, 1 mM EDTA and 10 μM Pargyline (adjusted to pH 7.4 with HCl) to an appropriate protein concentration optimized for specific and non-specific binding. Radioligand [^3H]Lysergic acid diethylamide (Perkin Elmer, specific activity ˜80 Ci/mmol) was diluted in assay buffer at a concentration of 20 nM. Radioligand (20 μl), along with 40 μl of either the 10% DMSO control, Methiothepine (10^−5 M final concentration), or compound of interest, was then incubated with 70 μl of the prepared membrane solution and 70 μl of WGA coated PVT beads (0.25 mg/well final concentration). After shaking for 24 hours at RT plates were counted in a Topcount™ scintillation counter. Percentage specific binding and competition binding curves were calculated using S-Plus software (Insightful).

For another series, the target named is T3, human D2L receptor (Homo sapiens, UniProt P14416).
T3 construct: expressed in transfected cells
T3 sequence (P14416 whole entry): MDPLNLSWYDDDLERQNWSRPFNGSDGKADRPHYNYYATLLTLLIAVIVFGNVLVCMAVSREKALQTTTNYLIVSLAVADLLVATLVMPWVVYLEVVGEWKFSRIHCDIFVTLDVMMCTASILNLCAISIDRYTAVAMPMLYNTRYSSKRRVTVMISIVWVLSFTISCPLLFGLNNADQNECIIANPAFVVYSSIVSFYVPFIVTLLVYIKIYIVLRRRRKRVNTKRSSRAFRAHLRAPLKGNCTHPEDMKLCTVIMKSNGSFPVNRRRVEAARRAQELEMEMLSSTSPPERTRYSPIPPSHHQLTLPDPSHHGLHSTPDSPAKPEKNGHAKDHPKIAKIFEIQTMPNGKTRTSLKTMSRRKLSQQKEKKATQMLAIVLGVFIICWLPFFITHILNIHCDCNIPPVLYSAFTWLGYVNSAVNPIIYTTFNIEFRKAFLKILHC
Briefly: Fast dissociation: indirect assay of rate of dissociation from D2 receptor ([3H]spiperone binding after pre-incubation with compound). Conditions: [3H]spiperone binding as % of total binding capacity after 5 min on filter; compound pre-incubated at 4 times its IC50; >50% = faster than clozapine. The protocol: Compounds were first screened for their D2 affinity in a binding assay using [^3H]spiperone and human D2L receptor cell membranes.
Compounds at a concentration of 4 times their IC50 were first incubated for one hour with human D2L receptor cell membranes in a volume of 2 ml at 25° C., then filtered over glass-fibre filter under suction using a 40 well multividor Immediately after, the vacuum was released. 0.4 ml of pre-warmed buffer (25° C.) containing 1 nM [^3H]spiperone was added on the filter for 5 minutes. The incubation was stopped by initiating the vacuum and immediate rinsing with 2×5 ml of ice-cold buffer. The filter-bound radioactivity was measured in a liquid scintillation spectrometer. The principle of the assay is based on the assumption that the faster a compound dissociates from the D2 receptor, the faster [^3H]spiperone binds to the D2 receptor.

Series [3] has as its target T4, human Dopamine D2L receptor (Homo sapiens, UniProt P14416).
T4 construct: expressed in transfected cells; host or cells: CHO cells (membranes)
Briefly: In vitro binding affinity for human D2L receptor ([3H]spiperone). The note with it: membranes of human D2L receptor-transfected CHO cells, read-out: D2L binding pIC50 (converted). The text has this:
In order to find antipsychotic compounds active against positive and negative symptoms and cognitive impairment, and having an improved safety profile (low EPS incidence and no metabolic disorders), we have screened for compounds selectively interacting with the dopamine D2 receptor and dissociating fast from this receptor, and further having affinity for the dopamine D3 receptor as well as the serotonin 5-HT-6 receptor. Compounds were first screened for their D2 affinity in a binding assay using [^3H]spiperone and human D2L receptor cell membranes.
Pharmacology In Vitro Binding Affinity for Human D2L Receptor
Frozen membranes of human Dopamine D2L receptor-transfected CHO cells were thawed, briefly homogenised using an Ultra-Turrax T25 homogeniser and diluted in Tris-HCl assay buffer containing NaCl, CaCl2, MgCl2, KCl (50, 120, 2, 1, and 5 mM respectively, adjusted to pH 7.7 with HCl) to an appropriate protein concentration optimised for specific and non-specific binding. Radioligand [^3H]Spiperone (NEN, specific activity ˜70 Ci/mmol) was diluted in assay buffer at a concentration of 2 nmol/L. Prepared radioligand (50 μl), along with 50 μl of either the 10% DMSO control, Butaclamol (10^−6 mol/1 final concentration), or compound of interest, was then incubated (30 min, 37° C.) with 400 μl of the prepared membrane solution. Membrane-bound activity was filtered through a Packard Filtermate harvester onto GF/B Unifilterplates and washed with ice-cold Tris-HCl buffer (50 mM; pH 7.7; 6×0.5 ml). Filters were allowed to dry before adding scintillation fluid and counting in a Topcount scintillation counter. Percentage specific bound and competition binding curves were calculated using S-Plus software (Insightful).

Series [4] relates to subchronic PCP-induced attentional set shifting. Briefly: Reversal of subchronic PCP-induced attentional set shifting in rats. The class given is in vivo. The source says: Compound E1 was further found to be active in the ‘Reversal of subchronic PCP-induced attentional set shifting in rats’ test (J. S. Rodefer et al., Neurospychopharmacology (2007), 1-10).

pIC50: −log10 of the molar value. Read-outs that look alike come from different tables or passages of the source. Some results are limits rather than exact numbers.

T4 sequence (P14416 whole entry): as above
T1 sequence (P35462 whole entry): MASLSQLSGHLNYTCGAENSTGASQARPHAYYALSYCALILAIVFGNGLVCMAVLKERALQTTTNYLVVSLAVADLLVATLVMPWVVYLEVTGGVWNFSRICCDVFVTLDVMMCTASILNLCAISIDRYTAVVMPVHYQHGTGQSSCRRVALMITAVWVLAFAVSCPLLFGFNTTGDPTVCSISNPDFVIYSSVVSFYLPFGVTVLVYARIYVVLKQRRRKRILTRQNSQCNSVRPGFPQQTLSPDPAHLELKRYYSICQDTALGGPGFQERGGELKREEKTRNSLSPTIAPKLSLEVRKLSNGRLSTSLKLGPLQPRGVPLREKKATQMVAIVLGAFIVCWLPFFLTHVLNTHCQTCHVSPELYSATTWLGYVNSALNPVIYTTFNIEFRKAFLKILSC

Take `FC(F)(F)c1nnc(N2CCN3CCCC3C2)cc1-c1ccccc1` (racemic) [Example E5, 2-(5-Phenyl-6-trifluoromethyl-pyridazin-3-yl)-octahydro-pyrrolo[1,2-a]pyrazine]: the IC50 in series [1] was more than 10000 nM; in series [2] it was 1020 nM; in series [3], 1260 nM. Further, the D2 dissociation at human D2L receptor came out at 84%.

The melting point is the temperature of the solid-liquid transition. In turn, `FC(F)(F)c1nnc(N2CCNCC2)cc1-c1ccccc1` [Example E1, 4-Phenyl-6-piperazin-1-yl-3-trifluoromethyl-pyridazine] yielded a melting point of 130.7 °C. Besides, in series [1], the IC50 is 66.1 nM. Further, the IC50 in series [2] is 589 nM. Moreover, in series [4], the “activity in reversal of subchronic PCP-induced attentional set shifting” value is reported as “active”. The D2 dissociation at human D2L receptor is listed as 75%. In series [3], the IC50 was 1100 nM.

For `CCN1CCN(c2cc(-c3ccccc3)c(C(F)(F)F)nn2)CC1` [Example E2, 6-(4-Ethylpiperazin-1-yl)-4-phenyl-3-trifluoromethyl-pyridazine], the figures for the IC50 in series [1], in series [2] and in series [3] were 25.1 nM, 3160 nM and 204 nM, respectively. Also, the D2 dissociation on human D2L receptor turned out to be 80.5%.

A word on the pIC50: it is the IC50 on a negative log10 scale, so that one unit is a factor of ten. Lower therefore signals a high IC50. In the case of `Fc1ccc(-c2cc(N3CCNCC3)nnc2C(F)(F)F)cc1` [Example E6, 4-(4-Fluorophenyl)-6-piperazin-1-yl-3-trifluoromethyl-pyridazine], the melting point was 137.4 °C. The pIC50 in series [1] was 7.44. Moreover, the IC50 in series [2] was 214 nM. For the same molecule, on human D2L receptor, the D2 dissociation is on record as 55%. The IC50 in series [3] was 372 nM.

`FC(F)(F)c1nnc(N2CCNCC2)cc1-c1ccsc1` [Example E7, 6-Piperazin-1-yl-4-thiophen-3-yl-3-trifluoromethyl-pyridazine]: the melting point came out at 244.3 °C. The IC50 in series [1] was more than 10000 nM. The IC50 in series [2] was 1550 nM. For the same molecule, the D2 dissociation at human D2L receptor was 81%. The IC50 in series [3] was 871 nM.

For the molecule `Cc1ccccc1-c1cc(N2CCNCC2)nnc1C(F)(F)F` [Example E8, 6-Piperazin-1-yl-4-o-tolyl-3-trifluoromethyl-pyridazine], the figures for the IC50 in series [1], in series [2] and in series [3] were more than 10000 nM, 263 nM and 1000 nM, respectively. Further, the D2 dissociation on human D2L receptor was found to be 78.5%.

`Fc1ccc(-c2ccc(-c3cc(N4CCNCC4)nnc3C(F)(F)F)cc2)cc1` [Example E9, 4-(4′-Fluorobiphenyl-4-yl)-6-piperazin-1-yl-3-trifluoromethyl-pyridazine]: the melting point was 161.9 °C. Further, in series [1], the IC50 was 47.9 nM. Besides, the IC50 in series [2] is 1820 nM. Besides, the D2 dissociation on human D2L receptor was found to be 48%. Further, in series [3], the IC50 is 794 nM.

The molecule `N#Cc1nnc(N2CCNCC2)cc1-c1ccccc1` [Example E10, 4-Phenyl-6-piperazin-1-yl-pyridazine-3-carbonitrile] returned a melting point of 271.6 °C. For the same molecule, the IC50 in series [1] is more than 10000 nM. The IC50 in series [2] was 4570 nM. Further, the D2 dissociation on human D2L receptor was 86%. Also, in series [3], the IC50 is 5620 nM.

Regarding `Clc1nnc(N2CCNCC2)cc1-c1ccccc1` [Example E20], the melting point was 173.9 °C. Also, the IC50 in series [1] was 151 nM. The IC50 in series [2] is 4370 nM. In series [3], the IC50 is 1410 nM.

`Fc1ccc(CN2CCN(c3cc(-c4ccccc4)c(C(F)(F)F)nn3)CC2)cc1F` [Example E21]: the melting point came to 185.1 °C. In addition, in series [1], the IC50 was 1480 nM. Moreover, the “5-HT6 binding pIC50” value in series [2] is recorded as more than 5. In addition, in series [3], the IC50 is 2000 nM.

For the molecule `FC(F)(F)c1nnc(N2CCN(C3CC3)CC2)cc1-c1ccccc1` [Example E23], the melting point came out at 152 °C. Besides, the IC50 in series [1] was 275 nM. Further, the IC50 in series [2] was more than 10000 nM. Further, the IC50 in series [3] is 1860 nM.

Consider `CCCN1CCN(c2cc(-c3ccccc3)c(C(F)(F)F)nn2)CC1` [Example E24], for which the melting point worked out at 129.8 °C. For the same molecule, the IC50 in series [1] is more than 10000 nM. The IC50 in series [2] was 5370 nM. Also, the IC50 in series [3] is 67.6 nM.

Regarding `CCCCN1CCN(c2cc(-c3ccccc3)c(C(F)(F)F)nn2)CC1` [Example E25], the melting point turned out to be 102.9 °C. Further, the IC50 in series [1] was 2.63 nM. The IC50 in series [2] was 2690 nM. Further, the IC50 in series [3] was 69.2 nM.

For `Cc1cscc1-c1cc(N2CCNCC2)nnc1C(F)(F)F` [Example E29], the melting point came out at 101 °C. In addition, the IC50 in series [1] was more than 10000 nM. In series [2], the IC50 is 537 nM. In series [3], the IC50 is 3550 nM.

Molecule `Cc1csc(-c2cc(N3CCNCC3)nnc2C(F)(F)F)c1` [Example E30] gave a melting point of 98.1 °C. In addition, the IC50 in series [1] is 53.7 nM. The IC50 in series [2] is 562 nM. The IC50 in series [3] is 759 nM.

`FC(F)(F)c1nnc(N2CCNCC2)cc1-c1ccc(-c2ccccc2)cc1` [Example E35] had a melting point of 199.1 °C. The IC50 in series [1] is 107 nM. For the same molecule, the IC50 in series [2] is 1510 nM. In addition, in series [3], the IC50 was 2690 nM.
